Experimental data reported in ChEMBL document CHEMBL1201862, “PubChem BioAssay data set” (2004).
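Five concentrations, 48 hours, 96-well plates. The concentration for 50% growth inhibition is given as GI50.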 Active and inactive are the calls of the source. No stated cut-off is given here; in the data, active = GI50 up to about 1.1 µM and inactive = higher.

Tests used:
Assay in all cases: inhibition of tumour cell growth, NCI panel, 48 h
786-0 = test system: 786-0
COLO 205 = test system: COLO 205
MOLT-4 = test system: MOLT-4
K562 = test system: K562
IGROV-1 = test system: IGROV-1
PC-3 = test system: PC-3
SK-OV-3 = test system: SK-OV-3
OVCAR-8 = test system: OVCAR-8
OVCAR-4 = test system: OVCAR-4
SK-MEL-5 = test system: SK-MEL-5
SF-539 = test system: SF-539
MDA-MB-435 = test system: MDA-MB-435
MCF7 = test system: MCF7
HCT-15 = test system: HCT-15
Malme-3M = test system: Malme-3M
RPMI-8226 = test system: RPMI-8226
CCRF-CEM = test system: CCRF-CEM
MDA-N = test system: MDA-N
U-251 = test system: U-251
HCC 2998 = test system: HCC 2998

Measured: GI50

Cc1cc2c(cc1C)C(=O)/C(=N/Nc1ccc(F)cc1)CCO2
inactive: 786-0 > 100 µM | COLO 205 > 100 µM | MOLT-4 > 100 µM | K562 > 100 µM | IGROV-1 > 100 µM | PC-3 > 100 µM | SK-OV-3 > 100 µM | OVCAR-8 > 100 µM | OVCAR-4 > 100 µM | SK-MEL-5 95.3 µM | SF-539 > 100 µM | MDA-MB-435 > 100 µM | MCF7 > 100 µM | Malme-3M 37 µM | RPMI-8226 > 100 µM | CCRF-CEM > 100 µM | MDA-N > 100 µM | U-251 > 100 µM | HCC 2998 > 100 µM
> 100 µM: HCT-15

Cc1cc(C)nc(NS(=O)(=O)c2ccc(Nc3c4ccccc4nc4ccc(C(=O)Nc5ccc(S(=O)(=O)N=C(N)N)cc5)cc34)cc2)n1
33.3 µM: HCT-15
inactive: 786-0 23.3 µM | COLO 205 > 100 µM | MOLT-4 32.3 µM | K562 25.2 µM | IGROV-1 > 100 µM | PC-3 > 100 µM | SK-OV-3 > 100 µM | OVCAR-8 > 100 µM | OVCAR-4 55.3 µM | SK-MEL-5 97.3 µM | SF-539 > 100 µM | MDA-MB-435 48.4 µM | MCF7 23.2 µM | Malme-3M 30.7 µM | RPMI-8226 35.7 µM | CCRF-CEM 31 µM | MDA-N > 100 µM | U-251 60.7 µM | HCC 2998 > 100 µM

O=[N+]([O-])c1ccc([I+]c2ccccc2)cc1
inactive: 786-0 4.26 µM | COLO 205 3.11 µM | MOLT-4 2.25 µM | K562 4.19 µM | IGROV-1 16.4 µM | PC-3 5.52 µM | SK-OV-3 2.07 µM | OVCAR-8 5.41 µM | OVCAR-4 4.33 µM | SK-MEL-5 8.04 µM | SF-539 7.11 µM | MDA-MB-435 8.2 µM | MCF7 4.97 µM | Malme-3M 4.78 µM | RPMI-8226 11.2 µM | CCRF-CEM 2.49 µM | MDA-N 6.56 µM | U-251 5.46 µM | HCC 2998 7.28 µM
7.35 µM: HCT-15

CC1=C(C)C(=O)O[C@@H]([C@](C)(O)[C@]2(O)CC[C@@]3(O)[C@@H]4C[C@H](O)[C@]5(O)[C@@H](O)C=CC(=O)[C@]5(C)[C@H]4CC[C@]23C)C1
inactive: 786-0 > 100 µM | COLO 205 > 100 µM | MOLT-4 > 100 µM | K562 67.3 µM | IGROV-1 > 100 µM | PC-3 > 100 µM | SK-OV-3 > 100 µM | OVCAR-8 > 100 µM | OVCAR-4 > 100 µM | SK-MEL-5 > 100 µM | SF-539 > 100 µM | MDA-MB-435 87.9 µM | MCF7 46.2 µM | Malme-3M > 100 µM | RPMI-8226 49.9 µM | CCRF-CEM 28.4 µM | MDA-N 93.1 µM | U-251 89.9 µM | HCC 2998 > 100 µM
> 100 µM: HCT-15

CCOC(=O)/C(=C/NC(=S)Nc1c(CC)cccc1C(C)(C)C)C(=O)c1ccccc1
> 100 µM: HCT-15
inactive: 786-0 > 100 µM | COLO 205 > 100 µM | MOLT-4 > 100 µM | K562 42.2 µM | IGROV-1 > 100 µM | PC-3 > 100 µM | SK-OV-3 > 100 µM | OVCAR-8 > 100 µM | OVCAR-4 > 100 µM | SK-MEL-5 > 100 µM | SF-539 > 100 µM | MDA-MB-435 > 100 µM | MCF7 88.9 µM | Malme-3M > 100 µM | RPMI-8226 88.9 µM | CCRF-CEM > 100 µM | MDA-N > 100 µM | U-251 > 100 µM | HCC 2998 > 100 µM

N/C(=N\n1c(=S)[nH]c2ccccc2c1=O)Nn1c(=S)[nH]c2ccccc2c1=O
inactive: 786-0 15.3 µM | COLO 205 28.8 µM | MOLT-4 11.4 µM | K562 26.6 µM | IGROV-1 28.9 µM | PC-3 51.8 µM | SK-OV-3 > 100 µM | OVCAR-8 28.8 µM | OVCAR-4 49.9 µM | SK-MEL-5 44.4 µM | SF-539 18.9 µM | MDA-MB-435 36.9 µM | MCF7 33.7 µM | Malme-3M 20.5 µM | RPMI-8226 22.4 µM | CCRF-CEM 18.8 µM | MDA-N 24.7 µM | U-251 27.9 µM | HCC 2998 > 100 µM
22.6 µM: HCT-15

Cc1c(Cl)c(C)c(Cl)c(O)c1Cl
inactive: 786-0 43.3 µM | COLO 205 60 µM | MOLT-4 17.1 µM | K562 17.5 µM | IGROV-1 44.3 µM | PC-3 19.8 µM | SK-OV-3 26.5 µM | OVCAR-8 30.3 µM | OVCAR-4 26 µM | SK-MEL-5 15.3 µM | SF-539 29 µM | MDA-MB-435 18.9 µM | MCF7 31.6 µM | Malme-3M 15.2 µM | RPMI-8226 17.3 µM | CCRF-CEM 33.7 µM | MDA-N 24.6 µM | U-251 16.3 µM | HCC 2998 19.8 µM
21.8 µM: HCT-15

COc1ccc2c(c1)CC[C@@H]1C2CC[C@]2(C)OC(=O)CCC12 (stereo not given in full)
17.5 µM: HCT-15
inactive: 786-0 5.85 µM | COLO 205 40.3 µM | MOLT-4 > 100 µM | K562 3.01 µM | IGROV-1 23.6 µM | PC-3 12.6 µM | SK-OV-3 > 100 µM | OVCAR-8 14 µM | OVCAR-4 6.12 µM | SK-MEL-5 12.6 µM | SF-539 15.2 µM | MDA-MB-435 26.5 µM | MCF7 15 µM | Malme-3M 15.7 µM | RPMI-8226 5.77 µM | CCRF-CEM 3.6 µM | MDA-N 20.3 µM | U-251 6.87 µM | HCC 2998 > 100 µM

COC(=O)C1=C(C)NC(C)=C(C(=O)OC)C1c1cccc(N=O)c1
inactive: 786-0 16.7 µM | COLO 205 18.5 µM | MOLT-4 4.76 µM | K562 4.69 µM | IGROV-1 17 µM | PC-3 17.8 µM | SK-OV-3 25.4 µM | OVCAR-8 15 µM | OVCAR-4 13.1 µM | SK-MEL-5 16.3 µM | SF-539 19.1 µM | MDA-MB-435 16.1 µM | MCF7 18.4 µM | Malme-3M 15.4 µM | RPMI-8226 4.53 µM | CCRF-CEM 3.55 µM | MDA-N 13.3 µM | U-251 17 µM | HCC 2998 22.3 µM
17.8 µM: HCT-15

COc1cccc2c(=O)c3c(n(C)c12)OC(C(C)C)C3 (stereo not given)
46.9 µM: HCT-15
inactive: 786-0 > 100 µM | COLO 205 74 µM | MOLT-4 16.9 µM | K562 27.5 µM | IGROV-1 42.6 µM | PC-3 > 100 µM | SK-OV-3 > 100 µM | OVCAR-8 > 100 µM | OVCAR-4 22.5 µM | SK-MEL-5 56.1 µM | SF-539 > 100 µM | MDA-MB-435 > 100 µM | MCF7 > 100 µM | Malme-3M > 100 µM | RPMI-8226 46.7 µM | CCRF-CEM > 100 µM | MDA-N > 100 µM | U-251 > 100 µM | HCC 2998 > 100 µM

C=CC(COC(=O)C(C)(C)OC(C)=O)c1ccc(OC(=O)C(C)C)c(OC)c1 (stereo not given)
2.03 µM: HCT-15
inactive: 786-0 7.38 µM | COLO 205 2.46 µM | MOLT-4 3.62 µM | K562 30.5 µM | IGROV-1 14.1 µM | PC-3 9.68 µM | SK-OV-3 16.5 µM | OVCAR-8 9.82 µM | OVCAR-4 7.89 µM | SK-MEL-5 13.5 µM | SF-539 11.8 µM | MDA-MB-435 8.91 µM | MCF7 2.51 µM | Malme-3M 2.7 µM | RPMI-8226 3.78 µM | CCRF-CEM 2.78 µM | MDA-N 3.52 µM | U-251 3.59 µM | HCC 2998 3.66 µM

CN(C)CCOc1ccc2[nH]c(C(=O)N3CC(CCl)c4ccc(N)cc43)cc2c1 (stereo not given)
0.102 µM: HCT-15
active: 786-0 0.0687 µM | COLO 205 0.083 µM | MOLT-4 < 0.01 µM | K562 0.0533 µM | IGROV-1 0.0395 µM | PC-3 0.0459 µM | OVCAR-8 0.0912 µM | OVCAR-4 0.0703 µM | SK-MEL-5 0.0451 µM | SF-539 0.385 µM | MDA-MB-435 0.0871 µM | MCF7 0.0266 µM | Malme-3M 0.164 µM | RPMI-8226 0.228 µM | CCRF-CEM 0.0381 µM | MDA-N 0.143 µM | U-251 0.0912 µM | HCC 2998 0.0535 µM
inactive: SK-OV-3 1.94 µM

O=C(N[C@H](CO)[C@H](O)c1ccc([N+](=O)[O-])cc1)C(Cl)Cl [CHLORAMPHENICOL]
inactive: 786-0 > 100 µM | COLO 205 > 100 µM | MOLT-4 > 100 µM | K562 > 100 µM | IGROV-1 > 100 µM | PC-3 > 100 µM | SK-OV-3 > 100 µM | OVCAR-8 > 100 µM | OVCAR-4 > 95.9 µM | SK-MEL-5 > 100 µM | SF-539 > 100 µM | MDA-MB-435 > 100 µM | MCF7 > 100 µM | Malme-3M > 100 µM | RPMI-8226 > 100 µM | CCRF-CEM > 100 µM | MDA-N > 100 µM | U-251 > 100 µM | HCC 2998 > 100 µM
> 100 µM: HCT-15
